Experimental findings from patent US20140056951A1, “METHODS AND COMPOSITIONS FOR TREATING BIOFILMS” (PRESIDENT AND FELLOWS OF HARVARD COLLEGE, priority 2011, published 2014) are described below.

For test [1], the system named is B. subtilis strain NCBI3610. The test can be described thus: Biofilm (pellicle) inhibition assay, B. subtilis in liquid biofilm-inducing medium. It counts as cell-based, Bacillus subtilis. The settings on record: for minimal effective concentration: Bacillus subtilis, NCBI3610, read-out: MBIC- Minimal Biofilm Inhibitory Concentration; for biofilm-inhibitory activity against B. subtilis: structure-activity; for inhibition of pellicle formation at 50 μM: cells diluted 1:1000 in biofilm media, final concentration 50 μM; for concentration above which inhibition of biofilm formation is observed: B. subtilis pellicle formation. Here is the method: Bacillus subtilis strains PY79, 3610 and their derivatives were grown in Luria-Bertani (LB) medium at 37° C. or MSgg medium (1) at 23° C. Solid media contained 1.5% Bacto agar. When appropriate, antibiotics were added at the following concentrations for growth of B. subtilis: 10 μg per ml of tetracycline, and 5 μg per ml of erythromycin, 500 μg per ml of spectinomycin.
B. subtilis strain NCBI3610 was grown at 22° C. in 12-well plates in liquid biofilm-inducing medium for 3 or 8 days. Conditioned medium (500 ml) from an 8-day-old culture was concentrated on the C-18 column and eluted step-wise with methanol. […]
Pellicle formation of strain NCBI 3610 was tested in the presence of the indicated concentrations of norspermidine (FIG. 1D) or spermidine (FIG. 1E).
To identify features of norspermidine important for its biofilm disassembly activity, we tested a library of polyamines in our biofilm inhibition assay (FIGS. 9A, 9B, 10 and Table 2).
The effect of polyamines on pellicle formation by B. subtilis was examined. B. subtilis wild-type cells were grown to a mid-logarithmic phase and diluted 1:1000 in biofilm media applied with each polyamine to the final concentration of 50 μM.
The effect of cyclic polyamines on biofilm formation by B. subtilis was examined. B. subtilis wild-type cells were grown to a mid-logarithmic phase and diluted 1:1000 in biofilm media (18A) or in a medium applied with cyclic compound 1,5,9-Triazacyclododecane to the final concentration of 50 μM (18B).

In test [2] the test system is B. subtilis wild-type cells. Nature of the test: Biofilm formation on solid biofilm medium, B. subtilis. The class given is cell-based, Bacillus subtilis. The settings on record: 1 μl of cells mixed with 1 μl (1 mM) polyamine. Here is the method: B. subtilis wild-type cells were grown to a mid-logarithmic phase and 1 μl of cells was mixed with 1 μl (1 mM) of each polyamine. The mixture was plated on solid biofilm medium.
B. subtilis wild-type cells were grown to a mid-logarithmic phase and 1 μl of cells was either mixed with PBS (18C) or mixed with 1 μl (1 mM) of each polyamine (18D). The mixture was plated on solid biofilm medium. “3*” refers to 1,5,9-Triazacyclododecane.

Test [3] deals with exopolysaccharide of S. aureus cells. Nature of the test: Fluorescence microscopy of exopolysaccharide staining, S. aureus. It counts as cell-based, Staphylococcus aureus.
Test [4] has as its system exopolysaccharide and TasA of B. subtilis NCBI 3610. Nature of the test: Fluorescence microscopy of matrix components (concanavalin A-Texas Red, TasA-mCherry), B. subtilis. It counts as cell-based, Bacillus subtilis. The settings on record: norspermidine 25 μM, spermidine 1 mM. The source says: The cells were washed in PBS and stained for exopolysaccharide with a conjugate of concanavalin A with Texas-Red.
[…] Cells were washed in PBS, and visualized by fluorescence microscopy.
To investigate further, exopolysaccharide was visualized by fluorescence microscopy using a conjugate of the carbohydrate-binding protein concanavalin A with Texas Red (FIG. 5) (McSwain et al., 2005). As evidence of specificity, the conjugate decorated wild-type cells but not cells from a mutant (Aeps) blocked in exopolysaccharide production (FIG. 6A). Indeed, at an exposure at which concanavalin A staining with the wild type strain gave an extremely bright fluorescent signal, little or no signal could be detected for the Aeps mutant, except at long exposures and enhanced brightness (FIG. 6A). Next, we investigated the effects of norspermidine and spermidine. […] Therefore, the difference in the staining was evidently due to differential levels of cell-associated exopolysaccharide. […] Thus, while not being bound to any theory, it is believed that norspermidine disrupts the matrix and by targeting exopolysaccharide.

In test [5] the test system is exopolysaccharide of E. coli cells. Nature of the test: Fluorescence microscopy of exopolysaccharide staining, E. coli. The class given is cell-based, Escherichia coli. The source says:
In testing E. coli, the biofilm-proficient strain MC4100 was selected because a major component of exopolysacchride is colanic acid (Danese et al., 2000; Price and Raivio, 2009).

The mark [6] stands for this setting: B. subtilis biofilm inhibition assay, library of polyamines.

With `c1cc2ccc1CNCCCNCCCNCc1ccc(cc1)CNCCCNCCCNC2` [Molecule 12, 3,7,11,18,22,26-Hexaazatricyclo[26.2.2.213,16]tetratriaconta-13,15,28,30,31,33-hexaene], the minimal effective concentration in test [1] (setting [6]) worked out at 500 µM. Besides, the “biofilm-inhibitory activity against B. subtilis” value (shortened to “biofilm-inhibitory activity”) in test [1] (library of polyamines) is on record as “active”.

As to `Cc1c(Cc2[nH]c(C(=O)OC(C)(C)C)c(C)c2C)[nH]c(Cc2[nH]c(C(=O)OC(C)(C)C)c(C)c2C)c1C` [Molecule 14, di-tert-butyl 5,5′-((3,4-dimethyl-1H-pyrrole-2,5-diyl)bis(methylene))bis(3,4-dimethyl-1H-pyrrole-2-carboxylate)], the minimal effective concentration in test [1] (setting [6]) was in the range of 500 to 700 µM. For the same compound, the “biofilm-inhibitory activity” value in test [1] (library of polyamines) is on record as “active”.

For `NCCCOCCCN` [Molecule 10, 3,3′-oxybis(propan-1-amine)], in test [1] (setting [6]), the minimal effective concentration was determined as 5000 µM.

For the compound `CN(CCCN)CCCN` [Molecule 9, (3-aminopropyl)-N^1-methylpropane-1,3-diamine], the minimal effective concentration in test [1] (setting [6]) is over 5000 µM.

Turning to `C1COCCN1` [morpholine, reference compound], in test [1] (NCBI3610 in fresh medium, 100 μM (FIG. 1B)), the “inhibition of pellicle formation at 100 μM” value was “inactive”.

Take `NCCCNCCCCNCCCN` [Molecule 4, 1,12-diamino-4,9-diazaoctane, reference compound]: the minimal effective concentration in test [1] (setting [6]) came to 2500 µM.

As for `NCCCCCN` [Molecule 19, pentane-1,5-diamine, reference compound], the minimal effective concentration in test [1] (setting [6]) was 3000 µM.

With `CCCCCCCCCCCCNCCCNCCCNCCCCCCCCCCCC` [Molecule 13, N^1-dodecyl-N^3-(3-(dodecylamino)propyl)propane-1,3-diamine], the minimal effective concentration in test [1] (setting [6]) came to 100 µM. For the same compound, the “biofilm-inhibitory activity” value in test [1] (library of polyamines) is given as “active”.

As to `OCCCNCCCO` [Molecule 20, 3,3′-azanediylbis(propan-1-ol)], the minimal effective concentration in test [1] (setting [6]) was over 5000 µM.

Take `C1CNCCCNCCCNC1` [c, 1,5,9-triazacyclododecane]: the “inhibition of pellicle formation at 50 μM” value in test [1] is listed as “inhibits biofilm formation”. The “inhibition of biofilm formation on solid biofilm medium” value in test [2] was “inhibits biofilm formation”.

`CCOC(=O)CCC(=O)CCC(=O)OCC` [Molecule 11, Diethyl 4-oxoheptanedioate]: in test [1] (setting [6]), the minimal effective concentration was over 5000 µM.

`O=C(NCCCNCCCNC(=O)C(O)C(O)C(O)C(O)CO)C(O)C(O)C(O)C(O)CO` (centres unmarked) [Molecule 17, N,N′-(azanediylbis(propane-3,1-diyl))bis(2,3,4,5,6-pentahydroxyhexanamide)]: in test [1] (setting [6]), the minimal effective concentration is over 5000 µM.

1,3-diaminopropane [Molecule 6]: the “MBIC- Minimal Biofilm Inhibitory Concentration” value in test [1] (setting [6]) lay in the range of 2500 to 5000 µM. Moreover, the “concentration above which inhibition of biofilm formation is observed” value in test [1] is over 5 mM.

For the compound `CN(C)CCCNCCCN(C)C` [Molecule 8, N^1-(3-(dimethylamino)propyl)-N^3, N^3-dimethylpropane-1,3-diamine], the minimal effective concentration in test [1] (setting [6]) is over 5000 µM.

As for `NCCCCNCCCN` [Molecule 3, 1,8-diamino-4-azaoctane, reference compound], the “staining of exopolysaccharide, S. aureus cells” value in test [3] is recorded as “not”. Moreover, the “pattern of concanavalin A-Texas Red staining of exopolysaccharide” value in test [4] was “No such effect”. Besides, in test [1] (listed as spermidine), the “concentration above which inhibition of biofilm formation is observed” value is recorded as over 2 mM. Besides, the “inhibition of pellicle formation at 50 μM” value in test [1] was “do not”. Also, the “staining of exopolysaccharide, E. coli cells” value in test [5] is recorded as “not”. For the same compound, the “inhibition of biofilm formation on solid biofilm medium” value in test [2] is recorded as “do not”.

For `NCCCN(CCCN)CCCN` [Molecule 21, N^1,N^1-bis(3-aminopropyl)propane-1,3-diamine], in test [1] (setting [6]), the minimal effective concentration was 200 µM. The “biofilm-inhibitory activity” value in test [1] (library of polyamines) was “did not block activity”.

In the case of `NCCCCN` [Molecule 5, 1,4-diaminobutane, reference compound], the minimal effective concentration in test [1] (setting [6]) lay within 2000 to 3000 µM.

With `CN(C)CCCN(C)CCCN(C)C` [Molecule 7, N^1-(3-(dimethylamino)propyl)-N^1,N^3,N^3-trimethylpropane-1,3-diamine], in test [1] (setting [6]), the minimal effective concentration is over 5000 µM.

On to `CN(C)N(CCC(N)=O)CCC(N)=O` [Molecule 16, 3,3′-(2,2-dimethylhydrazine-1,1-diyl)dipropanamide], for which the minimal effective concentration in test [1] (setting [6]) was over 5000 µM.

`NNC(=O)Cc1ccc(CC(=O)NN)[nH]1` [Molecule 15, 2,2′-(1H-pyrrole-2,5-diyl)di(acetohydrazide)]: the minimal effective concentration in test [1] (setting [6]) is over 5000 µM.

Regarding `NCCCCNCCCN` [Molecule 3, spermidine], the minimal effective concentration in test [1] (setting [6]) was 5000 µM.
